This note sets out measurements from ChEMBL document CHEMBL1201862, “PubChem BioAssay data set” (2004).

SMILES strings stand for the structures.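 Cells were grown in 96-well plates and exposed to each compound for 48 hours at five concentrations; endpoints were interpolated linearly between bracketing concentrations, or set to the highest concentration if not reached. GI50 is the concentration that inhibits growth by half.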 Active and inactive are the calls of the source. No stated cut-off is given here; in the data, active = GI50 up to about 1.1 µM and inactive = higher. Some results are limits rather than exact numbers.

Among the test systems are LOX IMVI; NCI-H23; Hs-578T; ACHN; Malme-3M; HOP-62; HT-29; MCF7; T47D; PC-3; MOLT-4; HCT-116; RXF 393; SNB-75; U-251; OVCAR-3; UACC-62; RPMI-8226; HL-60.
What all share (assay): growth of human tumour cells (NCI), 48 h

Turning to `CCCCCCCCCC(=O)OCC1(CO)C/C(=C/CC(C(C)C)C(C)C)C(=O)O1` (stereo not given), the GI50 in the assay with LOX IMVI was 21.6 µM (inactive); with NCI-H23, > 100 µM (inactive); in the assay with Hs-578T, 27 µM (inactive); in the assay with ACHN it was 71.1 µM (inactive); in the assay on Malme-3M it was 23 µM (inactive); in the assay with HOP-62, 30 µM (inactive). For the same compound, the GI50 with HT-29 was 31.6 µM (inactive); in the assay with MCF7, 59 µM (inactive); in the assay on T47D it was 58.3 µM (inactive); with PC-3, 42.4 µM (inactive); in the assay with MOLT-4 it was 14.5 µM (inactive); with HCT-116, 33.5 µM (inactive). Moreover, the GI50 is > 100 µM (inactive) in the assay on RXF 393; 78 µM (inactive) with SNB-75; 26.7 µM (inactive) in the assay on U-251; > 100 µM (inactive) in the assay on OVCAR-3; 49.2 µM (inactive) with UACC-62.
Turning to `Cc1ccccc1N/C(=C(/C(Cl)=C(Cl)Cl)[N+](=O)[O-])n1nnc2ccccc21`, the GI50 in the assay on NCI-H23 is 19.1 µM (inactive); with Hs-578T, 11.6 µM (inactive); in the assay on ACHN, 29.2 µM (inactive); in the assay with Malme-3M it was 14.7 µM (inactive); in the assay on HOP-62, 16.9 µM (inactive); in the assay on HT-29 it was 19.4 µM (inactive). Further, the GI50 in the assay on MCF7 is 27.7 µM (inactive); in the assay on T47D, 21 µM (inactive); in the assay with PC-3, 22.1 µM (inactive); in the assay with MOLT-4, > 100 µM (inactive); in the assay on HCT-116, 42.4 µM (inactive); in the assay on SNB-75, 16.6 µM (inactive). Also, the GI50 in the assay on U-251 was 16.3 µM (inactive); in the assay on RPMI-8226, 24.1 µM (inactive); in the assay on OVCAR-3 it was 16.9 µM (inactive); in the assay on UACC-62, 22.7 µM (inactive).
Regarding `COc1ccc(NC(C)=O)cc1N1C(=O)/C(=C\c2cccc(Oc3ccccc3)c2)SC1c1ccccc1` (stereo not given), the GI50 in the assay with HL-60 was 16.9 µM (inactive); in the assay on LOX IMVI, 13.4 µM (inactive); with NCI-H23, 46 µM (inactive); in the assay on ACHN, 31.3 µM (inactive); in the assay with Malme-3M, 65.6 µM (inactive); in the assay on HOP-62, 34.3 µM (inactive). For the same compound, the GI50 in the assay with HT-29 was 18.3 µM (inactive); in the assay on MCF7, 23.8 µM (inactive); in the assay on T47D, 23.4 µM (inactive); in the assay with PC-3, 21.7 µM (inactive); in the assay with MOLT-4, 10.1 µM (inactive); in the assay on HCT-116 it was 11.6 µM (inactive). In addition, the GI50 was 39.7 µM (inactive) with RXF 393; 38.6 µM (inactive) in the assay with SNB-75; 25.8 µM (inactive) in the assay with U-251; 17.4 µM (inactive) with RPMI-8226; 21.8 µM (inactive) in the assay on OVCAR-3; 26.7 µM (inactive) with UACC-62.
With `CN(C(=O)c1cccs1)C(=S)N1CCN(c2ccccc2)CC1`, the GI50 is 68.5 µM (inactive) in the assay on HL-60; > 100 µM (inactive) with LOX IMVI; > 100 µM (inactive) in the assay on NCI-H23; 42.7 µM (inactive) in the assay on Hs-578T; > 100 µM (inactive) in the assay on ACHN; > 100 µM (inactive) in the assay with Malme-3M. The GI50 in the assay on HT-29 was > 100 µM (inactive); in the assay on MCF7, > 100 µM (inactive); in the assay on T47D, > 100 µM (inactive); in the assay with MOLT-4 it was 51.8 µM (inactive); in the assay with RXF 393, > 100 µM (inactive); in the assay on SNB-75, > 100 µM (inactive). Moreover, the GI50 is > 100 µM (inactive) in the assay with U-251, 52.2 µM (inactive) in the assay with RPMI-8226, > 100 µM (inactive) in the assay with OVCAR-3 and > 100 µM (inactive) in the assay with UACC-62.
As to `O=C(Nc1ccc(Cl)cc1)c1cc2c(cc1Cl)SC(NNCCO)=NS2(=O)=O`, the GI50 in the assay with HL-60, in the assay on LOX IMVI, in the assay with NCI-H23, in the assay on Hs-578T, in the assay on ACHN and in the assay with HOP-62 was > 100 µM (inactive) each time. Further, the GI50 was > 100 µM (inactive) with HT-29; 98.9 µM (inactive) in the assay with MCF7; 24.8 µM (inactive) in the assay with T47D; > 100 µM (inactive) with PC-3; > 100 µM (inactive) with MOLT-4; > 100 µM (inactive) with HCT-116. Also, the GI50 in the assay on RXF 393, in the assay on SNB-75, in the assay on U-251, in the assay on RPMI-8226 and in the assay on UACC-62 was > 100 µM (inactive) each time.
For `OCC1OC(n2cnc3c(Cl)nc(Nc4ccccc4)nc32)CC1O` (stereo not given), the GI50 was 19.2 µM (inactive) in the assay with LOX IMVI; 29.3 µM (inactive) in the assay with NCI-H23; 35.2 µM (inactive) in the assay on Hs-578T; 17.3 µM (inactive) with ACHN; 18.7 µM (inactive) in the assay on Malme-3M; > 100 µM (inactive) in the assay with HOP-62. The GI50 was > 100 µM (inactive) in the assay with HT-29; > 100 µM (inactive) with MCF7; > 100 µM (inactive) in the assay on T47D; > 100 µM (inactive) with PC-3; 23.6 µM (inactive) in the assay with MOLT-4; > 100 µM (inactive) in the assay on HCT-116. The GI50 in the assay with RXF 393 was 57.1 µM (inactive); in the assay on SNB-75 it was 42.6 µM (inactive); in the assay on U-251, > 100 µM (inactive); in the assay with RPMI-8226, > 100 µM (inactive); with OVCAR-3 it was 75.5 µM (inactive); with UACC-62, 40.5 µM (inactive).
As to `CC1=NOC2(C1)/C(=N/O)CCC/C2=N\O` (stereo not given), the GI50 with LOX IMVI, with NCI-H23, with Hs-578T, with ACHN, in the assay on Malme-3M and in the assay on HOP-62 was > 100 µM (inactive) in each case. The GI50 with HT-29, in the assay on MCF7, in the assay with T47D, in the assay on PC-3, in the assay on MOLT-4 and in the assay on HCT-116 was > 100 µM (inactive) throughout. For the same compound, the GI50 in the assay on RXF 393 is 3.39 µM (inactive); in the assay with SNB-75 it was > 100 µM (inactive); in the assay with U-251, > 100 µM (inactive); in the assay with RPMI-8226, > 100 µM (inactive); in the assay on OVCAR-3 it was > 100 µM (inactive); in the assay on UACC-62, > 100 µM (inactive).
For `CC(C)[C@H](O)C(=O)N[C@H]1Cc2ccc3c(c2)[C@]24C5=C(N=C(O5)[C@H](C(C)C)NC1=O)c1nc(Cl)c(o1)-c1c(Cl)[nH]c5cccc(c15)-c1cccc2c1N[C@H]4O3`, the GI50 in the assay on LOX IMVI is 0.00392 µM (active); in the assay on NCI-H23 it was 0.00625 µM (active); with Hs-578T, 0.00256 µM (active); in the assay on ACHN, 0.0469 µM (active); with Malme-3M, 0.00643 µM (active); with HOP-62 it was 2.33 µM (inactive). The GI50 in the assay with HT-29 is 0.0111 µM (active); in the assay with MCF7 it was 0.00274 µM (active); in the assay on T47D, 3.9 µM (inactive); in the assay with PC-3 it was 0.00393 µM (active); in the assay with MOLT-4, 0.001 µM (active); in the assay with HCT-116 it was 0.00339 µM (active). Further, the results for the GI50 in the assay with U-251 and in the assay with OVCAR-3 were 0.00547 µM (active) and 0.00253 µM (active), respectively.
With `CN(C)CCCN1c2ccccc2CCc2ccc([N+](=O)[O-])cc21`, the GI50 in the assay with HL-60 was 19.8 µM (inactive); in the assay with LOX IMVI, 16.1 µM (inactive); in the assay on NCI-H23 it was 27.2 µM (inactive); in the assay on Hs-578T, > 100 µM (inactive); in the assay with ACHN, 34.6 µM (inactive); in the assay with Malme-3M, 19.5 µM (inactive). Moreover, the GI50 was 25.7 µM (inactive) in the assay on HOP-62; 19.1 µM (inactive) in the assay on HT-29; 17.7 µM (inactive) in the assay with MCF7; 16.5 µM (inactive) in the assay with T47D; 34.8 µM (inactive) in the assay on PC-3; 33.3 µM (inactive) in the assay with MOLT-4. For the same compound, the GI50 with HCT-116 was 26.9 µM (inactive); in the assay with U-251, 29.3 µM (inactive); in the assay with RPMI-8226, 34.5 µM (inactive); in the assay with OVCAR-3, 34.5 µM (inactive); with UACC-62 it was 16.1 µM (inactive).
With `Cc1nc(N)c(N2CCN(C(=O)O)CC2)c(O)n1`, the GI50 in the assay with HL-60, with LOX IMVI, in the assay with NCI-H23, in the assay on Hs-578T, with ACHN and with Malme-3M was > 100 µM (inactive) throughout. Also, the GI50 in the assay with HOP-62, in the assay on HT-29, with MCF7, with T47D, in the assay on PC-3 and with MOLT-4 was > 100 µM (inactive) in each case. The GI50 with HCT-116, in the assay with SNB-75, in the assay on U-251, in the assay on RPMI-8226 and in the assay on OVCAR-3 was > 100 µM (inactive) throughout.
Turning to `Cc1n[nH]c(=O)c2c3c([nH]c12)-c1ccccc1C3`, the GI50 with LOX IMVI, with NCI-H23, in the assay with Hs-578T, with ACHN, with Malme-3M and with HOP-62 was > 100 µM (inactive) in each case. The GI50 in the assay with HT-29 is > 100 µM (inactive); in the assay with MCF7, 75.3 µM (inactive); with T47D, 23.5 µM (inactive); with PC-3 it was > 100 µM (inactive); with MOLT-4, 39.9 µM (inactive); in the assay with HCT-116, > 100 µM (inactive). Besides, the GI50 was 77.3 µM (inactive) with RXF 393; 18.7 µM (inactive) in the assay on SNB-75; > 100 µM (inactive) in the assay with U-251; > 100 µM (inactive) with RPMI-8226; > 100 µM (inactive) with OVCAR-3.
